Measured values: paper PMC6837341, “Evolutionarily conserved susceptibility of the mitochondrial respiratory chain to SDHI pesticides and its consequence on the impact of SDHIs on human cultured cells” (PLoS ONE, 2019)
Where two headings read alike, the source gives them in different places.

How the values were obtained:
Type in all cases: biochemical
[1] = biological target: succinate cytochrome c reductase (SDH+CIII); test: SCCR activity, earthworm homogenate; conditions: Lumbricus terrestris homogenate
Experimental: L. terrestris individuals (n = 5) were collected manually in a household compost in Epernon (France 28230) and identified by the person (Paule Bénit) in charge of this compost. Before use, the worms were washed 5 times with 1× phosphate-buffered saline. A fresh homogenate was prepared from the segments located between the prostomium and clitellum of the 5 individuals. Tissues were placed in 500 μl of an ice-cold medium consisting of 20 mM Tris (pH 7.2), 0.25 M sucrose, 40 mM KCl, 2 mM EGTA, and 1 mg/ml BSA and homogenized using a 1-ml glass-glass Potter-Elvehjem homogenizer. Low-speed centrifugation at 1,500 g for 5 min allowed heavy debris to be discarded. The supernatant was distributed as 50-μl aliquots and kept frozen at -80°C.
(§1) RC enzyme activities were spectrophotometrically measured using a pseudo-double-wavelength spectrophotometer (Cary 60, Agilent). Malonate-sensitive succinate quinone dichlorophenolindophenol (DCPIP) reductase (SQDR), as an indicator of the activity of the isolated SDH enzyme (isolated CII), and glycerol-3-phosphate quinone DCPIP reductase (GQDR), as a measure of the activity of the isolated glycerol-3-phosphate dehydrogenase (G3PDH), were assayed as previously described. […] With this aim, we measured the malonate-sensitive succinate cytochrome c reductase (SDH+CIII), glycerol-3-phosphate cytochrome c reductase (G3PDH+CIII) and antimycin-sensitive quinol cytochrome c reductase (CIII) as previously described.
(§2) The effects of eight different SDHIs (up to 500 μM; S2 Fig) were determined on four different biological materials. Because IC50 are known to be affected by the actual absolute activity of the tested enzyme, these IC50 were quantified using similar levels of SDH enzyme activity during the assay. IC50 values were determined using the AAT Bioquest IC50 calculator tool (https://www.aatbio.com/tools/ic50-calculator).

[2] = biological target: T1, quinol cytochrome c reductase (CIII) (Apis mellifera, UniProt P34845); test: QCCR activity, honeybee crude mitochondria
T1 sequence (P34845 1-383): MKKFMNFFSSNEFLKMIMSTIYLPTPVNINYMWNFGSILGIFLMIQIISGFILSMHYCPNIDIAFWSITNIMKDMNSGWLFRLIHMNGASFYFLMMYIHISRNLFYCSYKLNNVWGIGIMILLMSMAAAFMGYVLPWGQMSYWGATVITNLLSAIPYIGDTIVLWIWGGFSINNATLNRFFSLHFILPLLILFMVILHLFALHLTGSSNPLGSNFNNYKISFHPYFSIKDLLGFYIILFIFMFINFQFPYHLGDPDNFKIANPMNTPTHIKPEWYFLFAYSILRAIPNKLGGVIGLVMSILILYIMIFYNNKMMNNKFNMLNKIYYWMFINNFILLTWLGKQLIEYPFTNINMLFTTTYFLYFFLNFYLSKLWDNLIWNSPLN
Experimental: A. mellifera individuals (n = 5) were a kind gift from Jacques Kemp (beekeeper; Saint-Rémy-lès-Chevreuse, Yvelines, France). Whole bodies of individuals frozen in dry ice, except heads, were homogenized using a 1 ml glass-glass Potter-Elvehjem homogenizer in an ice-cold medium consisting of 20 mM Tris (pH 7.2), 0.25 M sucrose, 40 mM KCl, 2 mM EGTA, and 1 mg/ml BSA. The homogenate was centrifuged at 1,500 g for 5 min. The mitochondria contained in the supernatant were spun down at 10,000 g for 10 min. The pellet of crude mitochondria was distributed as 20-μl aliquots and kept frozen at -80°C.
as §1, §2

[3] = biological target: T2, quinol cytochrome c reductase (CIII) (Botrytis cinerea, UniProt Q18ND9); test: QCCR activity, Botrytis cinerea mitochondria
T2 sequence (Q18ND9 1-391): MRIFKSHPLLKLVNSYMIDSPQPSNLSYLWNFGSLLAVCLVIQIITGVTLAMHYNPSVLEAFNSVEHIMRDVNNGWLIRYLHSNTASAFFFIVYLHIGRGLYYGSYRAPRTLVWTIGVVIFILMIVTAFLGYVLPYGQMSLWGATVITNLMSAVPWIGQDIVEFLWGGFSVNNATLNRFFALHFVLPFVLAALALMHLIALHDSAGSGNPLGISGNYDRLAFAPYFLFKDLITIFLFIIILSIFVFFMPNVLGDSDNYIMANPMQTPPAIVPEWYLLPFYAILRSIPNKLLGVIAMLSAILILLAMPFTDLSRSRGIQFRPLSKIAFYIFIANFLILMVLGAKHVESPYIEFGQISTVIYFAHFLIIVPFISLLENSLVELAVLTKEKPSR
Experimental: The mixed population of B. cinerea fungi used in this study was kindly provided by Dr. Joelle Dupont (Museum National d’Histoire Naturelle, Paris, France). Conidia from Botrytis cinerea were obtained from 15–30 d cultures grown on malt medium agar plates. Mycelial colonies were prepared by seeding conidia from 10 colonies in liquid medium (10 g of glucose, 2 g of KH2PO4, 0.5 g of MgSO47H2O, 1 g of (NH4)2SO4, 2 g of yeast extract and deionized water up to 1 l, pH 6.2). Incubation was performed at 23°C until hyphae totally covered the surface of the bottle. The hyphae (9-cm-diameter disks) were harvested, washed twice with refrigerated distilled water and finally with mitochondria extraction medium containing 20 mM Tris (pH 7.2), 0.25 M sucrose, 40 mM KCl, 2 mM EGTA, 1 mg/ml BSA, and no cysteine. The hyphae were suspended in 150 ml of extraction medium, cut in small pieces (1 cm^2) and then disrupted at high speed for 1×2 sec and at low speed for 2×3 sec using a MultiMoulinex mixer (Moulinex, France). The suspension of disrupted hyphae was then filtered through two layers of nylon cloth (clearance 150 μm). The cloth was washed with 50 ml of extraction medium. After low-speed centrifugation (700 g for 15 min), the mitochondria were collected at 10,000 g for 20 min. The pellet was suspended in 250 μl of extraction medium, aliquoted (± 30 μl) and kept frozen at -80°C.
as §1, §2

[4] = read-out: IC50 QCCR, CIII values only indicative
[5] = CIII values only indicative, read-out: IC50 QCCR

## CC(C)Oc1cccc(NC(=O)c2ccccc2C(F)(F)F)c1 [Flutolanil, flutolanil]
[1]
  IC50: 0.36 µM
[2]; [4]
  IC50: > 500 µM
[3]; [4]
  IC50: > 500 µM

## CC(C)C1C2CCC1c1c(NC(=O)c3cn(C)nc3C(F)F)cccc12 (stereo not drawn) [Isopyrazam, isopyrazam]
[1]
  IC50: 0.46 µM
[2]; [5]
  IC50: 87 µM
[3]; [5]
  IC50: 14.2 µM

## O=C(Nc1ccccc1-c1ccc(Cl)cc1)c1cccnc1Cl [Boscalid, boscalid]
[1]
  IC50: 0.5 µM
[2]; [4]
  IC50: > 500 µM
[3]; [4]
  IC50: > 500 µM

## Cc1nn(C)c(F)c1C(=O)Nc1ccccc1C(C)CC(C)C (stereo not drawn) [Penflufen, penflufen]
[1]
  IC50: 1.13 µM
[2]; [5]
  IC50: > 500 µM
[3]; [5]
  IC50: 433 µM

## Cn1cc(C(=O)Nc2ccc(F)cc2-c2ccc(Cl)c(Cl)c2)c(C(F)F)n1 [Bixafen, bixafen]
[1]
  IC50: 6 µM
[2]; [5]
  IC50: 5.7 µM
[3]; [5]
  IC50: 22.2 µM

## CC(C)CC(C)c1sccc1NC(=O)c1cn(C)nc1C(F)(F)F (stereo not drawn) [Penthiopyrad, penthiopyrad]
[1]
  IC50: 0.7 µM
[2]; [4]
  IC50: 268 µM
[3]; [4]
  IC50: 105 µM

## Cn1cc(C(=O)Nc2ccccc2-c2cc(F)c(F)c(F)c2)c(C(F)F)n1 [Fluxapyroxad, fluxapyroxad]
[1]
  IC50: 0.71 µM
[2]; [5]
  IC50: 300 µM
[3]; [5]
  IC50: 67 µM
